Reference: patent US6297257A, “Benzazine derivatives phosphodiesterase 4 inhibitors” (Zambon Group S.p.A., priority 1997, dated 2001)
Structures can show the parent of a compound that is named as a salt.

Tests used:
PDE 4 = PDE 4 Enzyme Inhibition (SPA); format: biochemical; settings: enzyme from human PMNs, cAMP 1 μM; for IC50: 40 minutes at 30° C.
Source text: PDE 4 Enzyme Inhibition Study a) Purification of Human Polymorphonucleate Leukocytes The polymorphonucleate leukocytes (PMNs) were isolated from peripheral blood of healthy volunteers according to what described by Boyum A., Scand. J. Immunol., 1976, 50 suppl., 9). Shortly, the isolation of the PMNs was effected by Ficoll-Paque gradient centrifugation followed by sedimentation on dextrane and the erythrocyte contanunation was eliminated by hypotonic lysis. b) PDE 4 Enzyme Purification The human PMNs were re-suspended in TRIS/HCl buffer (10 mM pH 7.8) containing MgCl2 (5 mM), EGTA (4 mM), mercaptoethanol (5 mM), TRITON-X100 (1%), pepstatin A (1 μM), PMSF (100 μM) and leupeptin (1 μM), and homogenized by Polytron. The homogenate was centrifuged at 25,000×g per 30 minutes at 4° C. and the sumatant was used for the PDE 4 enzyme purification by ion exchange chromatography using the FPLC technique according to what described by Schudt C. et al., Naunyn-Schmidberg's Arch. Pharmacol., 1991, 334, 682. The surnatant was seeded on a UNO Q12 column (Bio-Rad) and the enzyme was eluted by sodium acetate gradient from 50 mM to 1M. The fractions containing enzymatic activity were joined, dialysed against water and concentrated. The resulting PDE 4 enzyme was stored at -20° C. in the presence of ethylenglycole (30%) v/v) till the use c) PDE 4 Enzyme Inhibition The enzyme activity was evaluated with an Amersham kit based on the SPA technique (Scintillation Proximity Assay). The enzymatic reaction was effected in a total volume of 100 μl of TRIS/HCl buffer (50 mM, pH7.5), MgCl2, (8.3 mM), EGTA (1.7 mM), cAMP (1 μM) and [^3 H]cAMP (~100.000 dpm). The compounds of the invention were added at the wanted concentrations. The reaction was started by adding the enzyme (15 μg protein/ml) in 40 minutes at 30° C. and stopped by adding 50 μl of suspension of SPA particles. The radioactivity due to the particles was measured in β-emitting counter. The IC50 values were calculated on 9 equidistant concentrations in logarithmic scale using a 4-parameters logistic function by a software.

TNFα = TNFα Synthesis Inhibition (LPS-induced, human monocytes, ELISA); format: cell-based; settings: Monocyte, LPS 1 ng/ml, 16 hours at 37° C.
Experimental: TNFα Inhibition Test a) Human Monocytes Isolation The monocytes were isolated from peripheral blood of healthy volunteers according the procedure of […]. Natl. Cancer Inst., 1964, 32, 507. The monocytes and lymphocytes population was isolated by Ficoll gradient centrifugation, and the cells diluted at a density of 2.5×10^6 cells/ml in RPMI1640 incubation containing 1% inactivated bovine fetal serum, penicillin (100 U/ml) and streptomycin (100 U/ml) were placed in 24-wells plates (1 ml/well) and left to adhere for 1 hour at 37° C. with 5% CO2. At the end of the incubation the lymphocytes not adhering were removed by aspiration and the monocytes adhered to the plate were used in the next step. b) TNFα Synthesis Inhibition The TNFα synthesis from human monocytes was measured according to the method of Barnette M. et al., Biochemical Pharmacology, 1996, 51, 949. The monocytes were incubated for 1 hour with 1 ml of RPMI1640 incubation medium (1% inactivated bovine serum, 100 U/ml penicillin and streptomycin) containing different concentrations of the products according to the present invention or the carrier only for the controls. The TNFα synthesis from monocytes was induced by adding 1 ng/ml of LPS (lipopolysaccharide of E. Coli) and after 16 hours of incubation at 37° C., 5% CO2, the incubation medium was removed, and the surnatant stored at -80° C. until the measurement. The TNFα levels were determined by ELISA test with an Amersham kit. The results are set forth in Table 2 as IC50 measured with the same calculation of example 53.

PDE 5 = target: T1, PDE 5 (Homo sapiens, UniProt O76074); assay: PDE 5 Enzyme Inhibition Test (SPA); format: biochemical; settings: enzyme from human platelets; cGMP 1 μM; head prints (μM), no concentration figure
T1 construct: from tissue; host or cells: human platelets from platelet rich plasma
Experimental: (§1) PDE 3 and 5 Enzymes Inhibition Test a) Human Platelet Preparation
(§2) Human platelets were prepared from platelet rich plasma (PRP) obtained from the Hematological Dept. of the "L. Sacco" Hospital of Milan. […]
(§3) b) Purification of PDE 3 and PDE 5 with Fast Protein Liquid Chromatography (FPLC) Before the chromatographic step, platelets were thawed and 50 ml of 20 mM TRIS (pH=6.5) containing 5 mM β-mercapto-ethanol, 2 mM EDTA, 50 mM sodium acetate and 50 μM PMSF (homogenization buffer) were added. The platelet suspension was then homogenized by a Polytron homogenizer (Polytron PT 1200) for 20 seconds. The homogenate was centrifuged at 14,500 rpm for 20 minutes at 4° C., and the supernatant was applied to a UNO Q12 column (Bio-Rad) pre-equilibrated with the PMSF. A flow rate of 4.5 ml/min was used throughout the ion exchange chromatography procedure. The column was washed with PMSF (180 ml) and PDE 3 and PDE 5 were eluted by sodium acetate linear gradient from 0.05M to 1M. The fractions containing enzymatic activity were joined, dialyzed against water and concentrated 10 times by ultrafiltration. The resulting solution was stored at -20° C. in the presence of ethylenglycole (30%) v/v) until use. […]
(§4) c) Assay of Phoshodiesterase Activity
(§5) The enzyme activity was assessed with an Amersham kit based on the SPA technique (Scintillation Proximity Assay). The enzymatic reaction was effected in a total volume of 100 μl of TRIS/HCl buffer (50 mM, pH7.5), MgCl2 (8.3 mM), EGTA (1.7 mM), cAMP (for PDE 3 assay) or cGMP (for PDE 5 assay) (1 μM), [^3 H]cAMP or [^3 H]cGMP (10 μl), and 10 μl of the compounds of the invention. The reaction was started by adding the enzyme (10 μl) incubated for 40 minutes at 30° C. and stopped by adding 50 μl of SPA beads. The radioactivity due to the particles was measured in β-emitting counter. The results are expressed as percent activity versus the control present in each test.

PDE 3 = target: T2, PDE 3 (Homo sapiens, UniProt Q14432); assay: PDE 3 Enzyme Inhibition Test (SPA); format: biochemical; settings: enzyme from human platelets; cAMP 1 μM; head prints (μM), no concentration figure
T2 construct: the supernatant was applied to a UNO Q12 column (Bio-Rad); from tissue; host or cells: human platelets from platelet rich plasma
T2 sequence (Q14432 whole entry): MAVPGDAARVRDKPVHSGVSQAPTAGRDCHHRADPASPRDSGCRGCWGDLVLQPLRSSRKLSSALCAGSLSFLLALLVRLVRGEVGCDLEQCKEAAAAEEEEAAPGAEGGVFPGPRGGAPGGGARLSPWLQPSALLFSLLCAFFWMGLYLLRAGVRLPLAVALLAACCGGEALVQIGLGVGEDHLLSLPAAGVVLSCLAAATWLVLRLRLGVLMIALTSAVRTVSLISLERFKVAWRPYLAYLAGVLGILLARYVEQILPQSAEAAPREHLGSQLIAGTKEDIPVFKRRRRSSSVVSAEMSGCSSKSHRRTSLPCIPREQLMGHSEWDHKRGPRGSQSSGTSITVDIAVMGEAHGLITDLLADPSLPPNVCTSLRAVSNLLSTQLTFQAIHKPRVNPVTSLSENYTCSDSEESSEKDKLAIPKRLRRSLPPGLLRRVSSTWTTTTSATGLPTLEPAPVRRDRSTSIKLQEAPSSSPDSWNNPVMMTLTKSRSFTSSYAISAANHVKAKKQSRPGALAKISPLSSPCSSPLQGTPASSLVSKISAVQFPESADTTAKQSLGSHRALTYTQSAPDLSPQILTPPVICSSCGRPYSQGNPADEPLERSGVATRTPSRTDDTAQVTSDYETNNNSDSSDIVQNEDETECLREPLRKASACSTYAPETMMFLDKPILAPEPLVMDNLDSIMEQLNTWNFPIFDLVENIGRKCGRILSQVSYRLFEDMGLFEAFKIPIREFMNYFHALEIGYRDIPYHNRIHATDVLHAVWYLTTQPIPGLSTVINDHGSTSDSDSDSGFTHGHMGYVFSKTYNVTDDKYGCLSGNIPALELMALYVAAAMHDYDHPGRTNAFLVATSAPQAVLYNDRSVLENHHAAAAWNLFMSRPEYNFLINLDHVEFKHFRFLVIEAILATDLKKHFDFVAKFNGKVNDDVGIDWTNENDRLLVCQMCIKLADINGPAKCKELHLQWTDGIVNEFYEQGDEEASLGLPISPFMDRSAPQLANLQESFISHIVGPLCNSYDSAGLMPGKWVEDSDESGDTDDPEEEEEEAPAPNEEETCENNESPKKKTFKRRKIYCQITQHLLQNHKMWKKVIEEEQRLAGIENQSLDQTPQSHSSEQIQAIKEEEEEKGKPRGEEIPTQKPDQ
Experimental: as §1, §2, §3, §4, §5

| SMILES | PDE 4 % inhibition (PDE 4; 10^-6 M) [%] | IC50 (TNFα) [nM] | PDE 5 % inhibition (μM) (PDE 5) [%] | PDE 3 % inhibition (μM) (PDE 3) [%] | PDE 4 % inhibition (PDE 4; 10^-5 M) [%] | IC50 (PDE 4) [nM] |
| --- | --- | --- | --- | --- | --- | --- |
| COc1ccc2c(c1OCCCCCc1ccccc1)CCNC2Cc1c(Cl)cncc1Cl.Cl.Cl (centres unmarked) [Compound 4, 1-(3,5-dichloro-pyridin-4-yl-methyl)-5-(5-phenylpentyloxy)-6-methoxy-1,2,3,4-tetrahydro-isoquinoline Dihydrochloride] | 54 |  |  |  |  |  |
| COc1ccc2c(c1OCCCCCc1ccccc1)CCN=C2Cc1c(Cl)cncc1Cl.Cl [Compound 3, 1-(3,5-Dichloro-pyridin-4-yl-methyl)-5-(5-phenylpentyloxy)-6-methoxy-3,4-dihydro-isoquinoline Hydrochloride] | 93 | 83 ± 16 | 12 | 24 |  | 87.5 ± 17 |
| COC(=O)c1c(Cc2c(Cl)cncc2Cl)c2ccc(OC)c(OC3CCCC3)c2[nH]c1=O [Compound 8, 8-Cyclopentyloxy-4-(3,5-dichloro-pyridin-4-yl-methyl)-7-methoxy-2-oxo-1,2-dihydro-quinolin-carboxylic Acid Methyl Ester] | 60 |  |  |  |  |  |

Further lines, results first:

| PDE 4 % inhibition (PDE 4; 10^-6 M) [%] | IC50 (TNFα) [nM] | PDE 5 % inhibition (μM) (PDE 5) [%] | PDE 3 % inhibition (μM) (PDE 3) [%] | PDE 4 % inhibition (PDE 4; 10^-5 M) [%] | IC50 (PDE 4) [nM] | SMILES |
| --- | --- | --- | --- | --- | --- | --- |
| 79 | 252 ± 67 | 10 | 0 | 96 | 148 ± 18 | COc1ccc2c(c1OC1CCCC1)CCN=C2Cc1c(Cl)cncc1Cl [Compound 1, 5-Cyclopentyloxy-1-(3,5-dichloro-2-pridin-4-yl-methyl)-6-methoxy-3,4-dihydro-isoquinoline Hydrochloride] |
| 54 |  |  |  | 88 | 1050 ± 191 | COc1cc2c(cc1OC1CCCC1)C(Cc1c(Cl)cncc1Cl)=NCC2.Cl [Compound 2, 7-Cyclopentyloxy-1-(3,5-dichloro-pyridin-4-yl-methyl)-6-methoxy-3,4-dihydro-isoquinoline Hydrochloride] |
| 94 | 78.7 ± 16 | 10 | 12 | 100 | 101 ± 21 | COc1cc2c(cc1OC1CCCC1)C(=O)C(c1c(Cl)cncc1Cl)CN2 (centres unmarked) [Compound 12, 6-Cyclopentyloxy-3-(3,5-dichloro-pyridin-4-yl)-7-methoxy-2,3-dihydro-1H-quinolin-4-one] |
| 73 |  |  |  |  |  | COc1cc2[nH]cc(-c3c(Cl)cncc3Cl)c(=O)c2cc1OC1CCCC1 [Compound 10, 6-Cyclopentyloxy-3-(3,5-dichloro-pyridin-4-yl)-7-methoxy-1H-quinolin-4-one] |
